Measurements as given in PubChem BioAssay (NCI).
Values joined by “and” are separate entries in the source; they are usually repeats but may differ in a detail not shown here. Equal entries are not always repeated.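 Results reflect a 48-hour exposure of cells in 96-well plates to compound at five concentrations. At the GI50, growth is halved. Definition used: TGI = concentration required for complete inhibition of growth.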

What was measured:
Assay in all cases: growth of human tumour cells (NCI), 48 h
SR leukemia = system: SR leukemia
M14 melanoma = system: M14 melanoma
TK-10 renal = system: TK-10 renal
SNB-19 CNS = system: SNB-19 CNS
SF-539 CNS = system: SF-539 CNS
U251 CNS = system: U251 CNS
MALME-3M melanoma = system: MALME-3M melanoma
HCT-15 colon = system: HCT-15 colon
HOP-92 NSCLC = system: HOP-92 NSCLC
UACC-62 melanoma = system: UACC-62 melanoma
COLO 205 colon = system: COLO 205 colon
UACC-257 melanoma = system: UACC-257 melanoma
SK-MEL-28 melanoma = system: SK-MEL-28 melanoma
NCI-H460 lung = system: NCI-H460 lung
CCRF-CEM leukemia = system: CCRF-CEM leukemia

| SMILES | TGI (SR leukemia) [µM] | TGI (M14 melanoma) [µM] | TGI (TK-10 renal) [µM] | TGI (SNB-19 CNS) [µM] | TGI (SF-539 CNS) | TGI (U251 CNS) [µM] | TGI (MALME-3M melanoma) [µM] | TGI (HCT-15 colon) | TGI (HOP-92 NSCLC) [µM] | TGI (UACC-62 melanoma) | TGI (COLO 205 colon) | TGI (UACC-257 melanoma) | TGI (SK-MEL-28 melanoma) | TGI (NCI-H460 lung) [µM] | TGI (CCRF-CEM leukemia) | GI50 (NCI-H460 lung) | GI50 (HCT-15 colon) | GI50 (UACC-62 melanoma) | GI50 (SK-MEL-28 melanoma) [µM] | GI50 (CCRF-CEM leukemia) |
| --- | --- | --- | --- | --- | --- | --- | --- | --- | --- | --- | --- | --- | --- | --- | --- | --- | --- | --- | --- | --- |
| Cc1ccc(/C(O)=C/c2nc3ccccc3nc2NC23CC4CC(CC(C4)C2)C3)cc1 | > 10 | > 10 | > 10 | > 10 | > 10 µM | > 10 | > 10 | > 10 µM | > 10 | > 10 µM | > 10 µM | > 10 µM | > 10 µM |  |  |  |  |  |  |  |
| COc1ccc(/C=C/C(=O)c2cccc(C(=O)/C=C/c3ccc(OC)c(OC)c3)n2)cc1OC | > 25.9 | > 79.8 | > 100 | 99.1 | 38.4 µM | > 55.7 | 70.5 | 55 µM | > 100 | > 57.4 µM | > 100 µM | 99.4 µM | 45 µM | > 100 | 6.29 µM |  |  |  |  |  |
| COc1cc(/C=C2\N=C(c3ccccc3)N(c3ccc(S(=O)(=O)Nc4nccs4)cc3)C2=O)ccc1O | > 100 | > 100 | > 100 | > 100 | > 100 µM | > 100 | > 100 | > 100 µM | > 100 | > 100 µM | > 100 µM | > 100 µM |  | > 100 | > 100 µM |  |  |  |  |  |
| O=c1cnn(C/C=C/CP(=O)(O)O)c(=O)[nH]1 | > 100 | > 100 | > 100 | > 100 | > 100 µM | > 100 | > 100 | > 100 µM | > 100 |  | > 100 µM | > 100 µM | > 100 µM | > 100 |  |  |  |  |  |  |
| CCCC[P+](CCCC)(CCCC)C(C(=O)OC)C(C(=O)OC)=C1SC(C(=O)OC)=C(C(=O)OC)S1 (stereo unspecified) | > 100 | > 100 | > 100 | > 100 |  | > 100 | > 100 | > 100 µM | > 100 | > 100 µM | > 100 µM | > 100 µM | > 100 µM | > 100 |  |  |  |  |  |  |
| COC(=O)CC[N+]1([O-])CC1 | > 100 | > 100 | > 100 | > 100 | > 100 µM | > 100 | > 100 | > 100 µM | > 100 | > 100 µM | > 100 µM | > 100 µM | > 100 µM | > 100 | > 100 µM |  |  |  |  |  |
| Cc1cccc(/C=N/NC(=S)NC2CCCCC2)n1 | > 78.3 | 61.6 | > 100 | > 100 | 88.6 µM | > 87.8 | > 86.4 | > 100 µM | 61.8 | 59.2 µM | > 100 µM | > 84.5 µM | > 100 µM | > 67.8 | > 21.5 µM |  |  |  |  |  |
| CC(C)(C)c1cc(C(C)(C)C)c(P=C(Cl)Cl)c(C(C)(C)C)c1 (stereo unspecified) | > 100 | > 100 | > 100 | > 100 | > 100 µM | > 100 | > 100 | > 100 µM | > 100 | > 100 µM | > 100 µM | > 100 µM | > 100 µM | > 100 | > 100 µM |  |  |  |  |  |
| CCOC(=O)C(C)c1nc2cc(F)c(N3CCOCC3)cc2[nH]c1=O (stereo unspecified) | > 100 | > 100 | > 100 | > 100 | > 100 µM | > 100 | > 100 | > 100 µM | > 100 | > 100 µM | > 100 µM | > 100 µM | > 100 µM | > 100 | > 100 µM |  |  |  |  |  |
| CCOC(=O)CCN1C(=O)c2ccc(NC(=O)C(=O)O)cc2S1(=O)=O | > 100 | > 100 | > 100 | > 100 | > 100 µM | > 100 | > 100 | > 100 µM | > 100 | > 100 µM | > 100 µM | > 100 µM | > 100 µM | > 100 | > 100 µM |  |  |  |  |  |
| CCC(C)C1=C(O)[N+]2([O-])Oc3ccc(-c4c(O)c(O)c(-c5ccc(O)cc5)c(OC(C)=O)c4OC(C)=O)cc3OC2(C(C)CC)C(=O)N1O (stereo unspecified) | > 50 | > 50 | > 50 | > 50 | > 50 µM | > 50 | > 50 | > 50 µM |  | > 50 µM | > 50 µM | > 50 µM | > 50 µM | > 50 | 9.65 µM |  |  |  |  |  |
| N#CCN(Cc1ccccc1)[C@H]1CCC[C@]1(O)/C=C/c1ccc2c(c1)OCO2 | 40.2 | 30.2 | > 100 | 76.3 | 88.8 µM | 38.6 | 32.1 | 60.2 µM | 60.9 | 37.9 µM | 30.5 µM | 58 µM | 34 µM | 38.2 | 53.1 µM |  |  |  |  |  |
| COC(=O)C1C(O)C(C)C(O)C(C)/C=C\C=C(C)C(=O)Nc2c(C)c(OC(C)=O)c3c(c2O)C(=O)C(C)=C2OCOC(=C23)C(C)=CC(C)(O)C(O)C(C)C1O (stereo unspecified) | > 100 | > 100 | > 100 | > 100 | 74.3 µM and > 100 µM | > 100 | > 100 | 50.8 µM and > 100 µM | > 100 | 37.7 µM and > 100 µM | 36.3 µM and 58.6 µM | 55.7 µM and 62.5 µM | 44.7 µM and > 100 µM | > 100 | 50.9 µM and > 100 µM | 20.5 µM and > 100 µM | 19.4 µM and > 100 µM | 17 µM and > 100 µM | 21.7 | 18.9 µM and 54.7 µM |
| CC[N+](C)(C)c1ccc(C(=C2C=CC(=[N+](C)C)C=C2)c2ccc(N(C)C)cc2)cc1 | 35.6 | 31.4 | 97.6 |  | 50.4 µM | 14 | 66.3 | 89.4 µM | 54.8 | 29.7 µM | > 100 µM | 28.6 µM | 52.4 µM | 22.4 | 33.5 µM |  |  |  |  |  |
| O=C(c1c(F)c(F)c(F)c(F)c1F)n1c(=O)[nH]c2ccccc21 | 8.8 | 22.1 | 18.5 | 28.2 | 26.7 µM | 25.5 | 28.5 | 15.6 µM | 11.4 | 25.5 µM | 25.7 µM | 19.7 µM | 28.3 µM | 27.2 | 18.8 µM |  |  |  |  |  |
